ChEMBL document CHEMBL4630909 (2021)

Columns and labels:
[1] = molecular target: ATPase family AAA domain-containing protein 2B (Homo sapiens, UniProt Q9ULI0); assay: ATAD2B DiscoverX BROMOscan
[2] = molecular target: Transcription initiation factor TFIID subunit 1-like (Homo sapiens, UniProt Q8IZX4); assay: TAF1L(2) DiscoverX BROMOscan
[3] = molecular target: 5-hydroxytryptamine receptor 1A (Homo sapiens) (UniProt P08908); settings: Compound concentration 10.0 uM
[4] = molecular target: 5-hydroxytryptamine receptor 3A (Homo sapiens) (UniProt P46098); settings: Compound concentration 10.0 uM
[5] = molecular target: E3 ubiquitin-protein ligase TRIM33 (Homo sapiens, UniProt Q9UPN9); assay: TRIM33(PHD,Bromo.) DiscoverX BROMOscan
[6] = molecular target: Bromodomain-containing protein 7 (Homo sapiens, UniProt Q9NPI1); assay: BRD7 DiscoverX BROMOscan
[7] = molecular target: Beta-1 adrenergic receptor (Homo sapiens) (UniProt P08588); settings: Compound concentration 10.0 uM
[8] = molecular target: D(1B) dopamine receptor (Homo sapiens) (UniProt P21918); settings: Compound concentration 10.0 uM
[9] = species: Rattus norvegicus; settings: Compound concentration 10.0 uM
[10] = molecular target: Histamine H3 receptor (Homo sapiens) (UniProt Q9Y5N1); settings: Compound concentration 10.0 uM
[11] = molecular target: Alpha-2B adrenergic receptor (Homo sapiens) (UniProt P18089); settings: Compound concentration 10.0 uM
[12] = molecular target: Bromodomain adjacent to zinc finger domain protein 2B (Homo sapiens, UniProt Q9UIF8); assay: BAZ2B DiscoverX BROMOscan
[13] = molecular target: 5-hydroxytryptamine receptor 2A (Homo sapiens, UniProt P28223); settings: Compound concentration 10.0 uM
[14] = molecular target: Kappa-type opioid receptor (Homo sapiens, UniProt P41145); settings: Compound concentration 10.0 uM
[15] = molecular target: D(2) dopamine receptor (Homo sapiens, UniProt P14416); settings: Compound concentration 10.0 uM
[16] = molecular target: Alpha-1B adrenergic receptor (Homo sapiens) (UniProt P35368); settings: Compound concentration 10.0 uM
[17] = molecular target: Protein polybromo-1 (Homo sapiens, UniProt Q86U86); assay: PBRM1(2) DiscoverX BROMOscan
[18] = molecular target: 5-hydroxytryptamine receptor 1B (Homo sapiens, UniProt P28222); settings: Compound concentration 10.0 uM
[19] = molecular target: ATPase family AAA domain-containing protein 2 (Homo sapiens, UniProt Q6PL18); assay: ATAD2A DiscoverX BROMOscan
[20] = molecular target: GABA-A receptor; anion channel (Rattus norvegicus) (UniProt O09028+P15431+P18506+P18508+P19969+P20236+P23574+P23576+P28471+P28473+P30191+P62813+P63079+P63138+Q91ZM7+Q9ES14); settings: Compound concentration 10.0 uM
[21] = molecular target: Muscarinic acetylcholine receptor M4 (Homo sapiens) (UniProt P08173); settings: Compound concentration 10.0 uM
Chain of Muscarinic acetylcholine receptor M4 (Homo sapiens) (P08173 whole entry): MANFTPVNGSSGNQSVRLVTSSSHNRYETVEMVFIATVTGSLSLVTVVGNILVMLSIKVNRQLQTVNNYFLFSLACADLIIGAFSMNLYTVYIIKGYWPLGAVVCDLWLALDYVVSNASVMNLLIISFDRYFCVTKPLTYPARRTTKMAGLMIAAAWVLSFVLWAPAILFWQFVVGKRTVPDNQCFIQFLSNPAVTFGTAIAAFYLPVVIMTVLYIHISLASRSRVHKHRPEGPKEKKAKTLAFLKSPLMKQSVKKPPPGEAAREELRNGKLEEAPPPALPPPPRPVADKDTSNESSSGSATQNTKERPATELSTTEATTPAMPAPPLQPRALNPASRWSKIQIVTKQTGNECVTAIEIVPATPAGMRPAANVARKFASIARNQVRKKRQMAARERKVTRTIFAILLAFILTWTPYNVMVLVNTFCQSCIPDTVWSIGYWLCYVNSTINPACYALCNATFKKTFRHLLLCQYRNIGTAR

[22] = molecular target: 5-hydroxytryptamine receptor 2B (Homo sapiens) (UniProt P41595); settings: Compound concentration 10.0 uM
Chain of 5-hydroxytryptamine receptor 2B (Homo sapiens) (P41595 whole entry): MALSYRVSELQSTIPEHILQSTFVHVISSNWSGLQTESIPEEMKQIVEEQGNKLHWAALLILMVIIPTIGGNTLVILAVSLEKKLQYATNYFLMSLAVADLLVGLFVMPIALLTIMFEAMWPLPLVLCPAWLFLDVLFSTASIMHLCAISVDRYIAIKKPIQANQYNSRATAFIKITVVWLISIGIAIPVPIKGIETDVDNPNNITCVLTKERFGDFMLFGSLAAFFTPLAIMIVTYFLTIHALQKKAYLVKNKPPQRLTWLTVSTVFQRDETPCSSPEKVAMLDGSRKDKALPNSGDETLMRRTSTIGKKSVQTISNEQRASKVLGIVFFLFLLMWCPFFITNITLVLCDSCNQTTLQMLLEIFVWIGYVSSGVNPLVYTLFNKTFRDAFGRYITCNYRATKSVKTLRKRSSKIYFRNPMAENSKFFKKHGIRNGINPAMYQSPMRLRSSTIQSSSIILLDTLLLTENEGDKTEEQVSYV

[23] = molecular target: SWI/SNF-related matrix-associated actin-dependent regulator of chromatin subfamily A member 4 (Homo sapiens, UniProt P51532); assay: SMARCA4 DiscoverX BROMOscan
[24] = molecular target: Delta-type opioid receptor (Homo sapiens) (UniProt P41143); settings: Compound concentration 10.0 uM
[25] = molecular target: 5-hydroxytryptamine receptor 2C (Homo sapiens) (UniProt P28335); settings: Compound concentration 10.0 uM
Chain of 5-hydroxytryptamine receptor 2C (Homo sapiens) (P28335 whole entry): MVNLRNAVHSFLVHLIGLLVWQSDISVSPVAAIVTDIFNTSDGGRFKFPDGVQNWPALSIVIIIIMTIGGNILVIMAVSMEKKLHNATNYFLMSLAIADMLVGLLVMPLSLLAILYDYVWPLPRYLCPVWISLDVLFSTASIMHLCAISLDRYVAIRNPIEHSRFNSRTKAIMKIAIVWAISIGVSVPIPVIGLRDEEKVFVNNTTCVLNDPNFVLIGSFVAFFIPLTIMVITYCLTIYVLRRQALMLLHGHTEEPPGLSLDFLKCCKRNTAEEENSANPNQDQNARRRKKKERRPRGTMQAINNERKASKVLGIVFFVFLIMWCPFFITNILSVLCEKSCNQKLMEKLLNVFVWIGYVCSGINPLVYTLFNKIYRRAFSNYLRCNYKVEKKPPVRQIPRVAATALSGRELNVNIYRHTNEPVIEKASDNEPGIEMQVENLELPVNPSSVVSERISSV

[26] = molecular target: Chromatin remodeling regulator CECR2 (Homo sapiens, UniProt Q9BXF3); assay: CECR2 DiscoverX BROMOscan
[27] = molecular target: Bromodomain adjacent to zinc finger domain protein 2A (Homo sapiens, UniProt Q9UIF9); assay: BAZ2A DiscoverX BROMOscan
[28] = molecular target: D(4) dopamine receptor (Homo sapiens) (UniProt P21917); settings: Compound concentration 10.0 uM
[29] = molecular target: Histone acetyltransferase p300 (Homo sapiens, UniProt Q09472); assay: EP300 DiscoverX BROMOscan
[30] = molecular target: D(3) dopamine receptor (Homo sapiens) (UniProt P35462); settings: Compound concentration 10.0 uM
[31] = molecular target: Muscarinic acetylcholine receptor M3 (Homo sapiens) (UniProt P20309); settings: Compound concentration 10.0 uM
[32] = molecular target: Phosphatidylinositol 4,5-bisphosphate 3-kinase catalytic subunit gamma isoform (Homo sapiens, UniProt P48736); assay: (§1) Cross screening panel
[33] = molecular target: Substance-P receptor (Homo sapiens, UniProt P25103); assay: as §1
[34] = molecular target: Muscarinic acetylcholine receptor M1 (Homo sapiens, UniProt P11229); assay: as §1
Chain of Muscarinic acetylcholine receptor M1 (P11229 whole entry): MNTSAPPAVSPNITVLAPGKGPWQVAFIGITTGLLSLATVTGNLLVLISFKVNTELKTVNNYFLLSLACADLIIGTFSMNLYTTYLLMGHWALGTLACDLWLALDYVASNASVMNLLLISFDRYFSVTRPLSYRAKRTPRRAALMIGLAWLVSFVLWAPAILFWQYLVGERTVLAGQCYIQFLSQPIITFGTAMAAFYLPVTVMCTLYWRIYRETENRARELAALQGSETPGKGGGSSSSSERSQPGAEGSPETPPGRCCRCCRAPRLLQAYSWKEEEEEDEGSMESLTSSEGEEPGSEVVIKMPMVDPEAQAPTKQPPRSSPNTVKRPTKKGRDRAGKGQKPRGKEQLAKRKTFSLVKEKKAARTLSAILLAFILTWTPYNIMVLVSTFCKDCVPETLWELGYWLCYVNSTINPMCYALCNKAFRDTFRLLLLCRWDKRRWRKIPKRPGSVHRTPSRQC

[35] = molecular target: Voltage-dependent L-type calcium channel subunit alpha-1C (Homo sapiens, UniProt Q13936); assay: as §1
[36] = molecular target: 5-hydroxytryptamine receptor 5A (Homo sapiens) (UniProt P47898); settings: Compound concentration 10.0 uM
[37] = molecular target: SWI/SNF-related matrix-associated actin-dependent regulator of chromatin subfamily A member 2 (Homo sapiens, UniProt P51531); assay: SMARCA2 DiscoverX BROMOscan
[38] = molecular target: Sigma intracellular receptor 2 (Homo sapiens) (UniProt Q5BJF2); settings: Compound concentration 10.0 uM
[39] = molecular target: Muscarinic acetylcholine receptor M2 (Homo sapiens) (UniProt P08172); settings: Compound concentration 10.0 uM
[40] = molecular target: D(1A) dopamine receptor (Homo sapiens, UniProt P21728); settings: Compound concentration 10.0 uM
[41] = molecular target: Bromodomain-containing protein 8 (Homo sapiens, UniProt Q9H0E9); assay: BRD8(2) DiscoverX BROMOscan
Chain of Bromodomain-containing protein 8 (Q9H0E9 whole entry): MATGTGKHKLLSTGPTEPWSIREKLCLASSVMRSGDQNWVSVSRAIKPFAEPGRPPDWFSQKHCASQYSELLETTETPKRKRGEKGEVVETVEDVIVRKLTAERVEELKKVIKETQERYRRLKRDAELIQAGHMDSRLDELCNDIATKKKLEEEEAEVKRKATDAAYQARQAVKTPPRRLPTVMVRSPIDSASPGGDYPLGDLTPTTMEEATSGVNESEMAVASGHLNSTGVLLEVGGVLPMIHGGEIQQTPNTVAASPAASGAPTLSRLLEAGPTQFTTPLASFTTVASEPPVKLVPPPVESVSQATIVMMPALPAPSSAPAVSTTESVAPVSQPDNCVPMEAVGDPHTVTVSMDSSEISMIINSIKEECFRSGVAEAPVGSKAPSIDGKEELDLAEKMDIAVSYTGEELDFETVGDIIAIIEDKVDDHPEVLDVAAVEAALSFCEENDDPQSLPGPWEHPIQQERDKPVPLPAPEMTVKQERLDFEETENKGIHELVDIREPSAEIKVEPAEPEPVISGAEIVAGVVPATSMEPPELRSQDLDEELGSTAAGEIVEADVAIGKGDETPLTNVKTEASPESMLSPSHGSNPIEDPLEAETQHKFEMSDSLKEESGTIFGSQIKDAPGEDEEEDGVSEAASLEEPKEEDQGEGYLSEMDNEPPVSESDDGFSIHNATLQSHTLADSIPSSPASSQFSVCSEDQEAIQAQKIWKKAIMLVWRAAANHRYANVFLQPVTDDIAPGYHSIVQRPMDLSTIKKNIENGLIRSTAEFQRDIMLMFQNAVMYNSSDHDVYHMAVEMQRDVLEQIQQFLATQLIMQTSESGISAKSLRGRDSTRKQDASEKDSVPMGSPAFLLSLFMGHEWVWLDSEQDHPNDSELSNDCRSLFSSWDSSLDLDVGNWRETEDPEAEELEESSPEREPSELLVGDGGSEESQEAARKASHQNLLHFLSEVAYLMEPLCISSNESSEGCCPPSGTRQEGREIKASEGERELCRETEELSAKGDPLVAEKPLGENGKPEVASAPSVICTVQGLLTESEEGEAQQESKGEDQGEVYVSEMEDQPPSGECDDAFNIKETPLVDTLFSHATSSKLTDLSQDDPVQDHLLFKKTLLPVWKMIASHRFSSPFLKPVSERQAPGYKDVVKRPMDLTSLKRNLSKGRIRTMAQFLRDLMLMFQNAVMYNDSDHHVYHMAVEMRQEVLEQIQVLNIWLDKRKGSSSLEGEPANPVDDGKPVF

[42] = molecular target: 5-hydroxytryptamine receptor 7 (Homo sapiens) (UniProt P34969); settings: Compound concentration 10.0 uM
[43] = molecular target: Histone acetyltransferase KAT2A (Homo sapiens, UniProt Q92830); assay: GCN5L2 DiscoverX BROMOscan
[44] = molecular target: GABA-A receptor; anion channel; assay: as §1; format: protein-complex assay
[45] = molecular target: Voltage-gated potassium channel, IKs; KCNQ1(Kv7.1)/KCNE1(MinK) (Homo sapiens, UniProt P15382+P51787); assay: as §1; format: protein-complex assay
Chain of Voltage-gated potassium channel, IKs; KCNQ1(Kv7.1)/KCNE1(MinK) (P51787 whole entry): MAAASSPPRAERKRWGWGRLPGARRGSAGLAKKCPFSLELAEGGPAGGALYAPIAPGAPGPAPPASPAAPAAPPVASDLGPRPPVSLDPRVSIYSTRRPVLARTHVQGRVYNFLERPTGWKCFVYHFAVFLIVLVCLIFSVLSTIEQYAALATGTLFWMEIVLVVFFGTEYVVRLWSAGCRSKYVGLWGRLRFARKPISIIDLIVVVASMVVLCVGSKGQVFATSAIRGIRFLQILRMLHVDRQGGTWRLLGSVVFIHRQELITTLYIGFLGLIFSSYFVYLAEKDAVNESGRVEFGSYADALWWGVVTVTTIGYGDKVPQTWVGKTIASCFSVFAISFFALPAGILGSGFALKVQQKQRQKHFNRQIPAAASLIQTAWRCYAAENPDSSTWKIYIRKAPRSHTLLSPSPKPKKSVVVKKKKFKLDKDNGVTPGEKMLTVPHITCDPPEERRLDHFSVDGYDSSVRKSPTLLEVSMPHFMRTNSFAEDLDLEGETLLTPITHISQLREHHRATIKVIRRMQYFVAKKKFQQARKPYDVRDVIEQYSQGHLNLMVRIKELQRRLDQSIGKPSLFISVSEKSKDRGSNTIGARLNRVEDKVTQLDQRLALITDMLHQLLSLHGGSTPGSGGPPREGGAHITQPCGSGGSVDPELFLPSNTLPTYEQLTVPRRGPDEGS

[46] = molecular target: 5-hydroxytryptamine receptor 6 (Homo sapiens) (UniProt P50406); settings: Compound concentration 10.0 uM
[47] = molecular target: Alpha-1D adrenergic receptor (Homo sapiens) (UniProt P25100); settings: Compound concentration 10.0 uM
Chain of Alpha-1D adrenergic receptor (Homo sapiens) (P25100 whole entry): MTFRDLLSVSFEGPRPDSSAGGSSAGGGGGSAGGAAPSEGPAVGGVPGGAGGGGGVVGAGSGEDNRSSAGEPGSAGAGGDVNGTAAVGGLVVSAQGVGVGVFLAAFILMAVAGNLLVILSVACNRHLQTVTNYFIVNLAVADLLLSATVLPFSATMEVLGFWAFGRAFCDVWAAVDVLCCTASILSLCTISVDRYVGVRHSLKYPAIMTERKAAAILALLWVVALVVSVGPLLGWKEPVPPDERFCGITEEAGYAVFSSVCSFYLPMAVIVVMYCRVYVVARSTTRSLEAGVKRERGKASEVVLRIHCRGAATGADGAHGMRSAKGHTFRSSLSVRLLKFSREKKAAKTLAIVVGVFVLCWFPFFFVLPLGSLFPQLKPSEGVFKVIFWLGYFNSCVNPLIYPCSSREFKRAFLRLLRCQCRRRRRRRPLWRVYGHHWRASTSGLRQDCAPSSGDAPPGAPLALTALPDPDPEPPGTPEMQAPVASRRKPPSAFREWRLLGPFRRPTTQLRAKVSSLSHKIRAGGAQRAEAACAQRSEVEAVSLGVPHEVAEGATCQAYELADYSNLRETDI

Chain of 5-hydroxytryptamine receptor 1A (Homo sapiens) (P08908 whole entry): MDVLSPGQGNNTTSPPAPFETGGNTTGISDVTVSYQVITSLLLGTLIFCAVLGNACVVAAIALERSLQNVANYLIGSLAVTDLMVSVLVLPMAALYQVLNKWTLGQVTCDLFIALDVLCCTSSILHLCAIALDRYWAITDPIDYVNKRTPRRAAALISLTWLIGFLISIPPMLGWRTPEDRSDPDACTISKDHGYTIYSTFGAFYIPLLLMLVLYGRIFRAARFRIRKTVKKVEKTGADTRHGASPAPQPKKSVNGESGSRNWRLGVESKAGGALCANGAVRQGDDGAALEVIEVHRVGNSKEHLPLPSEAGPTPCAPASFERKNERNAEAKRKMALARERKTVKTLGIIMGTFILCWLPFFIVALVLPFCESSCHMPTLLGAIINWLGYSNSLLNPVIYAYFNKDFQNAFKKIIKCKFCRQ

CNC(=O)c1cc(C(=O)NC2CC2)cn(Cc2ccccc2)c1=O [GSK620]
Kd [1]: 31.6 µM | Kd [2]: 25.1 µM | inhibition [3]: 6.03% | inhibition [4]: 14.3% | Kd [5]: 31.6 µM | Kd [6]: 31.6 µM | inhibition [7]: -6.19% | inhibition [8]: 18.6% | inhibition [9]: 7.71% | inhibition [10]: -8.16% | inhibition [11]: 5.2% | Kd [12]: 31.6 µM | inhibition [13]: -8.9% | inhibition [14]: 39.9% | inhibition [15]: -2.98% | inhibition [16]: 7.27% | Kd [17]: 31.6 µM | inhibition [18]: -3.67% | Kd [19]: 31.6 µM | inhibition [20]: 8.55% | inhibition [21]: 0.52% | inhibition [22]: 16.5% | Kd [23]: 31.6 µM | inhibition [24]: -2.78% | inhibition [25]: 32.1% | Kd [26]: 31.6 µM | Kd [27]: 31.6 µM | inhibition [28]: 6.96% | Kd [29]: 7.94 µM | inhibition [30]: 1.54% | inhibition [31]: 21.4% | IC50 [32]: > 31.6 µM | IC50 [33]: > 25.1 µM | EC50 [34]: > 50.1 µM | IC50 [34]: > 50.1 µM | IC50 [35]: 79.4 µM | inhibition [36]: -4.41% | Kd [37]: 31.6 µM | inhibition [38]: 7.83% | inhibition [39]: 13.2% | inhibition [40]: 6.94% | Kd [41]: 31.6 µM | inhibition [42]: 13.6% | Kd [43]: 31.6 µM | pEC50 [44]: < 4 | pIC50 [44]: < 4 | IC50 [45]: > 25.1 µM | inhibition [46]: 10.9% | inhibition [47]: 2.36%
